The text below walks through data of patent publication US20260265238A1, “COMPOUNDS AND PHARMACEUTICAL COMPOSITIONS THAT DEGRADE SWI/SNF-RELATED MATRIX-ASSOCIATED ACTIN-DEPENDENT REGULATOR OF CHROMATIN SUBFAMILY A” (Plexium, Inc., priority 2023, published 2026).

For test [1], the target named is T1, SMARCA2-HiBiT HeLa cells (protein which is expressed from the SMARCA2 gene) (Homo sapiens, UniProt P51531).
T1 construct: protein which is expressed from the SMARCA2 and SMARCA4 genes; host or cells: HeLa (SMARCA2-HiBiT engineered line)
Description: SMARCA2 degradation assay (HiBiT-fusion HeLa cell line, 24 h, luminescence). In kind it is cell-based. The essentials:
(§1)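 HeLa cells carrying HiBiT-tagged SMARCA2 or SMARCA4 were seeded at 8,000 cells/well, allowed to attach overnight at 37° C., then given compounds in a 10-point dilution series (typically 10 μM to 300 pM) for 24 hours at 37° C. Remaining tagged protein was read by HiBiT lytic luminescence, and DC50s came from dose-response curves.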
A general note: The HiBiT peptide binds its large partner to form an active luciferase.

In test [2] the target is T2, SMARCA4-HiBiT HeLa cells (protein which is expressed from the SMARCA4 gene) (Homo sapiens, UniProt P51532).
T2 construct: protein which is expressed from the SMARCA2 and SMARCA4 genes; host or cells: HeLa (SMARCA4-HiBiT engineered line)
Description: SMARCA4 degradation assay (HiBiT-fusion HeLa cell line, 24 h, luminescence). In kind it is cell-based. The essentials:
as §1

T1 sequence (P51531 whole entry): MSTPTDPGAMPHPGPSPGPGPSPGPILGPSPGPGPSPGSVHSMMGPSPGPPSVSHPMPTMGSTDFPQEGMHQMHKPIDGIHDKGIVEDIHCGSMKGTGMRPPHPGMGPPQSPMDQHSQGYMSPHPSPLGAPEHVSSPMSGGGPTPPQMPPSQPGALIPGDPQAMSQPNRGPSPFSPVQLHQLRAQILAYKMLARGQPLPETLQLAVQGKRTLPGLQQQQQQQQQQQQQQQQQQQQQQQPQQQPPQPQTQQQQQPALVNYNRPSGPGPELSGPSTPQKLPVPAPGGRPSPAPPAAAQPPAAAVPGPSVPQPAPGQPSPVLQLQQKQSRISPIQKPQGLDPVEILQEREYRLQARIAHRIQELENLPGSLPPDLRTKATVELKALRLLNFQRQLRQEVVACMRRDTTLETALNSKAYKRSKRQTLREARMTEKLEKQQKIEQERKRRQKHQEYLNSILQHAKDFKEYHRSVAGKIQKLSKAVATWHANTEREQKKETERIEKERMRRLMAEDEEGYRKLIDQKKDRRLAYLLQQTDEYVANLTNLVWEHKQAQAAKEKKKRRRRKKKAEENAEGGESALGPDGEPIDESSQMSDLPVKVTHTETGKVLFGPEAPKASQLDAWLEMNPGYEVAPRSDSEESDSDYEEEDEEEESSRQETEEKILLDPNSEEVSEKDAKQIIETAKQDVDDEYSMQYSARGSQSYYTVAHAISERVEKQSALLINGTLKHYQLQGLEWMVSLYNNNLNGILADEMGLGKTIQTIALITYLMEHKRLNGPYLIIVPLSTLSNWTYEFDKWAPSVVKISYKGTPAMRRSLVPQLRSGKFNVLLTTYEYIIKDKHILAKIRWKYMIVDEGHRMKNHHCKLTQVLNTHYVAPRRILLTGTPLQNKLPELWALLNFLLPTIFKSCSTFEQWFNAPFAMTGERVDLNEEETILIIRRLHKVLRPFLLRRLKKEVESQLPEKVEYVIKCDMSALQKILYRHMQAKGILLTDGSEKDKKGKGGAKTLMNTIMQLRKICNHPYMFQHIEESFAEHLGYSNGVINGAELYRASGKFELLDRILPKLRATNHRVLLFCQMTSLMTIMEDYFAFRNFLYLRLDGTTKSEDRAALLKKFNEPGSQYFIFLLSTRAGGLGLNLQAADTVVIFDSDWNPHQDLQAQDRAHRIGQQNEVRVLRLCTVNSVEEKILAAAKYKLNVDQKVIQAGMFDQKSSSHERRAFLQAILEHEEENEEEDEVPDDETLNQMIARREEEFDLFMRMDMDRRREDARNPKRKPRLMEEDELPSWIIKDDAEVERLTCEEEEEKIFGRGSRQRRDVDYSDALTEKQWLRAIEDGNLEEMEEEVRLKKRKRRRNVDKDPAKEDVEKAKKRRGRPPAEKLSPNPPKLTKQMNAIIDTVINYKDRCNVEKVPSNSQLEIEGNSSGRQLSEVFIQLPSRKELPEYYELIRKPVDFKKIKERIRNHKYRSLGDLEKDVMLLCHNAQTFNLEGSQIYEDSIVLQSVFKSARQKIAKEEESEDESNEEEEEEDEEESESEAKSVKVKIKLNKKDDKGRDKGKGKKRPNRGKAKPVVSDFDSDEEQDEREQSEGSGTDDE
T2 sequence (P51532 whole entry): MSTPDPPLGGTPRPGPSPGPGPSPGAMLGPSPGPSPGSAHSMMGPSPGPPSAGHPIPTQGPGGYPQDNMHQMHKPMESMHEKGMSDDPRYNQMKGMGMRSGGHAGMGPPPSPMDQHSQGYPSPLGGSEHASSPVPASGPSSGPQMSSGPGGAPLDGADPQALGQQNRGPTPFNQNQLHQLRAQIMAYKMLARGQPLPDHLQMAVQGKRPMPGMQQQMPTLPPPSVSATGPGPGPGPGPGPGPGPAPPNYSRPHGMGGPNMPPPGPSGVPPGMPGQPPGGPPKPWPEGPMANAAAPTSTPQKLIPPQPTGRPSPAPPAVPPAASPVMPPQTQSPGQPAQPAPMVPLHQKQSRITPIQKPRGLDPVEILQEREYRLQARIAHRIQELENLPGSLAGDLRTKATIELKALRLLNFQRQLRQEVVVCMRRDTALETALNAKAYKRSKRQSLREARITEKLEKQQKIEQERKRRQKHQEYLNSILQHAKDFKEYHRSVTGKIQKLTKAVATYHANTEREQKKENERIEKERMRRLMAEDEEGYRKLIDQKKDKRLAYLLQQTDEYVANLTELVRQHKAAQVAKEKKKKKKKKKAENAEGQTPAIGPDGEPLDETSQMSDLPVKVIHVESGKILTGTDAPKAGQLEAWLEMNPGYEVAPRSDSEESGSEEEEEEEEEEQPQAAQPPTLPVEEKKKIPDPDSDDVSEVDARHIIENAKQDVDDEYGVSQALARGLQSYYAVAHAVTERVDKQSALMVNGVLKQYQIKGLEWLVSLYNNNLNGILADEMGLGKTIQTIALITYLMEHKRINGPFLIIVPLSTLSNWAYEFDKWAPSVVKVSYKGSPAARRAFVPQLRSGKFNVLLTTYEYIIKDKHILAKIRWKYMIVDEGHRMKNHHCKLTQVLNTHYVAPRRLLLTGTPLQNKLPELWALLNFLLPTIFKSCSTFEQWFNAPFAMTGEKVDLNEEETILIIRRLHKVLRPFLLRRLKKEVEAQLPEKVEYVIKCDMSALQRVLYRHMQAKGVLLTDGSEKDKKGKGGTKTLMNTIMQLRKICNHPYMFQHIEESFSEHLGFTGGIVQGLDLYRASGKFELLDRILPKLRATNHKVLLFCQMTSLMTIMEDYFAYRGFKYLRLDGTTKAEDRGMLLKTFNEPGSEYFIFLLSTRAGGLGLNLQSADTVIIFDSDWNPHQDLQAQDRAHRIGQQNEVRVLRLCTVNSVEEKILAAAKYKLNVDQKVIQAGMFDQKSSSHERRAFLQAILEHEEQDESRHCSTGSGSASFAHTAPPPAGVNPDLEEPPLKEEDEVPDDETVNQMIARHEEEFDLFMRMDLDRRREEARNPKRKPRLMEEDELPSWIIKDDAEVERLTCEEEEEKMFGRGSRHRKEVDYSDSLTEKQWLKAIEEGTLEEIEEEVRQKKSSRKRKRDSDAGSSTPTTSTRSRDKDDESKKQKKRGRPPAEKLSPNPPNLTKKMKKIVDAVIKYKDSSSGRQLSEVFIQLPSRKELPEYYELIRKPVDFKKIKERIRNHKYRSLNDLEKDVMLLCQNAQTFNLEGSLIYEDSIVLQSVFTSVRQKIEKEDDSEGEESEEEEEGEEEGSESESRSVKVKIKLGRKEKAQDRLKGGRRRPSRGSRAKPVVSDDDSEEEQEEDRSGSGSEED

As for `C[C@H]1CN(c2ccnc(C#CCn3ccnc3)n2)CCN1c1cc(-c2ccccc2O)nnc1N` [Compound P-293, 0-{5-[(S)-4-{2-[3-(1-imidazolyl)-1-propynyl]-4-pyrimidinyl}-2-methyl-1-piperaziny1]-6-amino-3-pyridazinyl}phenol], in test [1], the DC50 (in general, the midpoint of the concentration-degradation curve) was 50 to 500 nM and the “SMARCA2 % Degradation @ 1 μM” value was “++ (++=30-70%)”. In test [2], the half-maximal degradation concentration (DC50) was < 50 nM and the inhibition (as a rule, the percentage by which the read-out fell short of the control) at 1 µM was < 30%.

On to `CNCC#Cc1nccc(N2CCN(c3cc(-c4ccccc4O)nnc3N)CC2)n1` [Compound P-294, 0-[6-amino-5-(4-{2-[3-(methylamino)-1-propynyl]-4-pyrimidinyl}-1-piperazinyl)-3-pyridazinyl]phenol], for which, in test [1], the 50% degradation concentration (DC50) is < 50 nM and the “SMARCA2 % Degradation @ 1 μM” value is reported as “++ (++=30-70%)”. Further, in test [2], the DC50 was < 50 nM and the inhibition at 1 µM was < 30%.

Turning to `CNCC#Cc1nccc(N2C[C@H]3C[C@@H]2CN3c2cc(-c3ccccc3O)nnc2N)n1` [Compound P-295, 0-{5-[(1R,4R)-5-{2-[3-(methylamino)-1-propynyl]-4-pyrimidinyl}-2,5-diazabicyclo[2.2.1]hept-2-y1]-6-amino-3-pyridazinyl} phenol], in test [1], the DC50 was in the range of 50 to 500 nM and the “SMARCA2 % Degradation @ 1 μM” value was “++ (++=30-70%)”. Further, in test [2], the DC50 was 50 to 500 nM and the inhibition at 1 µM was < 30%.

With `CC(C)(C)OC(=O)NCC#Cc1nccc(N2CCC(Oc3cc(-c4ccccc4O)nnc3N)CC2)n1` [Compound P-296, 4-(1-{2-[3-(tert-butoxycarbonylamino)-1-propynyl]-4-pyrimidinyl}-4-piperidyloxy)-6-(o-hydroxyphenyl)-3-pyridazinamine], in test [1], the DC50 fell in the range of 50 to 500 nM and the “SMARCA2 % Degradation @ 1 μM” value is on record as “++ (++=30-70%)”. In test [2], this compound showed a 50% degradation concentration (DC50) of 50 to 500 nM and an inhibition at 1 µM of 30 to 70%.

For `CNCC#Cc1nccc(N2CCN(c3cc(-c4ccccc4O)nnc3N)CC[C@H]2C)n1` [Compound P-297, 0-{5-[(R)-5-methyl-4-{2-[3-(methylamino)-1-propynyl]-4-pyrimidinyl}-1,4-diazepan-1-yl]-6-amino-3-pyridazinyl} phenol], in test [1], the half-maximal degradation concentration (DC50) was 50 to 500 nM and the “SMARCA2 % Degradation @ 1 μM” value is recorded as “++ (++=30-70%)”. Moreover, in test [2], the 50% degradation concentration (DC50) was < 50 nM and the inhibition at 1 µM is < 30%.

Consider `C[C@@H]1CCN(c2cc(-c3ccccc3O)nnc2N)CCN1c1ccnc(C#CCn2ccnc2)n1` [Compound P-298, 0-{5-[(R)-4-{2-[3-(1-imidazolyl)-1-propynyl]-4-pyrimidinyl}-5-mcthyl-1,4-diazepan-1-yl]-6-amino-3-pyridazinyl}phenol], for which, in test [1], the 50% degradation concentration (DC50) lay within 50 to 500 nM and the “SMARCA2 % Degradation @ 1 μM” value is recorded as “+++ (+++=>70%)”. In test [2], the DC50 was in the range of 50 to 500 nM and the inhibition at 1 µM lay within 30 to 70%.

Turning to `C[C@@H]1CCN1CC#Cc1nccc(N2CCCN(c3cc(-c4ccccc4O)nnc3N)CC2)n1` [Compound P-299, 0-{5-[4-(2-{3-[(R)-2-methyl-1-azetidinyl]-1-propynyl}-4-pyrimidinyl)-1,4-diazepan-1-y1]-6-amino-3-pyridaziny1} phenol], in test [1], the half-maximal degradation concentration (DC50) was 50 to 500 nM and the “SMARCA2 % Degradation @ 1 μM” value is reported as “+++ (+++=>70%)”. Moreover, in test [2], the half-maximal degradation concentration (DC50) was 50 to 500 nM and the inhibition at 1 µM lay in the range of 30 to 70%.

On to `Nc1nnc(-c2ccccc2O)cc1N1CCCN(c2ccnc(C#CCNC3CCOCC3)n2)CC1` [Compound P-300, 0-[6-amino-5-(4-{2-[3-(tetrahydro-2H-pyran-4-ylamino)-1-propynyl]-4-pyrimidinyl}-1,4-diazepan-1-yl)-3-pyridazinyl]phenol], for which, in test [1], the DC50 lay in the range of 50 to 500 nM and the “SMARCA2 % Degradation @ 1 μM” value is listed as “+++ (+++=>70%)”. In test [2], this compound registered a DC50 of 50 to 500 nM and an inhibition at 1 µM of 30 to 70%.

As to `Nc1nnc(-c2ccccc2O)cc1N1CCCN(c2ccnc(C#CCNC3CC3)n2)CC1` [Compound P-301, 0-[6-amino-5-(4-{2-[3-(cyclopropylamino)-1-propynyl]-4-pyrimidinyl}-1,4-diazepan-1-yl)-3-pyridazinyl]phenol], in test [1], the DC50 lay in the range of 50 to 500 nM and the “SMARCA2 % Degradation @ 1 μM” value is reported as “++ (++=30-70%)”. In test [2], this compound returned a DC50 of 500 to 5000 nM and an inhibition at 1 µM of 30 to 70%.

In the case of `CC(C)(C)OC(=O)NCC#Cc1nccc(N2C3CCC2CN(c2cc(-c4ccccc4O)nnc2N)CC3)n1` (stereo not shown) [Compound P-303, 4-(9-{2-[3-(tert-butoxycarbonylamino)-1-propynyl]-4-pyrimidinyl}-3,9-diazabicyclo[4.2.1]non-3-yl)-6-(o-hydroxyphenyl)-3-pyridazinamine], in test [1], the half-maximal degradation concentration (DC50) is < 50 nM and the “SMARCA2 % Degradation @ 1 μM” value is listed as “++ (++=30-70%)”. Also, in test [2], the half-maximal degradation concentration (DC50) was < 50 nM and the inhibition at 1 µM fell in the range of 30 to 70%.

As for `CC(C)(C)OC(=O)NCC#Cc1nccc(N2CCCN(c3cc(-c4ccccc4O)nnc3N)CCC2)n1` [Compound P-304, 4-(5-{2-[3-(tert-butoxycarbonylamino)-1-propynyl]-4-pyrimidinyl}-1,5-diazocan-1-yl)-6-(o-hydroxyphenyl)-3-pyridazinamine], in test [1], the 50% degradation concentration (DC50) is 50 to 500 nM and the “SMARCA2 % Degradation @ 1 μM” value was “+++ (+++=>70%)”. This compound also came in with a DC50 in test [2] of 50 to 500 nM.

In the case of `C[C@H]1COC[C@H](C)N1CC#Cc1nccc(N2CCCN(c3cc(-c4ccccc4O)nnc3N)CC2)n1` [Compound P-305, 0-{5-[4-(2-{3-[(3S,5S)-3,5-dimethyl-4-morpholinyl]-1-propynyl}-4-pyrimidinyl)-1,4-diazepan-1-yl]-6-amino-3-pyridazinyl}phenol], in test [1], the DC50 lay within 50 to 500 nM and the “SMARCA2 % Degradation @ 1 μM” value is on record as “++ (++=30-70%)”. Moreover, in test [2], the 50% degradation concentration (DC50) was in the range of 50 to 500 nM and the inhibition at 1 µM lay in the range of 30 to 70%.

Take `Nc1nnc(-c2ccccc2O)cc1N1CCCN(c2ccnc(C#Cc3cccc4nccn34)n2)CC1` [Compound P-306, 0-[5-(4-{2-[2-(1,3a-diaza-4-indenyl)ethynyl]-4-pyrimidinyl}-1,4-diazepan-1-yl)-6-amino-3-pyridazinyl]phenol]: in test [1], the DC50 lay within 500 to 5000 nM and the “SMARCA2 % Degradation @ 1 μM” value is “??”. In test [2], the DC50 is 500 to 5000 nM and the inhibition at 1 µM is < 30%.

In the case of `CC(C)(C)OC(=O)NCC#Cc1nccc(NC2CN(c3cc(-c4ccccc4O)nnc3N)C2)n1` [Compound P-307, 4-(3-{2-[3-(tert-butoxycarbonylamino)-1-propynyl]-4-pyrimidinylamino}-1-azetidinyl)-6-(o-hydroxyphenyl)-3-pyridazinamine], in test [1], the DC50 was 50 to 500 nM and the “SMARCA2 % Degradation @ 1 μM” value was “++ (++=30-70%)”. In addition, in test [2], the half-maximal degradation concentration (DC50) fell in the range of 50 to 500 nM and the inhibition at 1 µM lay in the range of 30 to 70%.

In the case of `Nc1nnc(-c2ccccc2O)cc1N1CCCN(c2ccnc(C#CCN3CCC3)n2)CC1` [Compound P-308, 0-[6-amino-5-(4-{2-[3-(1-azetidinyl)-1-propynyl]-4-pyrimidinyl}-1,4-diazepan-1-yl)-3-pyridazinyl]phenol], in test [1], the 50% degradation concentration (DC50) lay within 500 to 5000 nM and the “SMARCA2 % Degradation @ 1 μM” value is on record as “++ (++=30-70%)”. In test [2], this compound came in with a DC50 of 500 to 5000 nM and an inhibition at 1 µM of 30 to 70%.

For the compound `COC1CN(CC#Cc2nccc(N3CCCN(c4cc(-c5ccccc5O)nnc4N)CC3)n2)C1` [Compound P-309, 0-[6-amino-5-(4-{2-[3-(3-methoxy-1-azetidinyl)-1-propynyl]-4-pyrimidinyl}-1,4-diazepan-1-yl)-3-pyridazinyl]phenol], in test [1], the DC50 fell in the range of 50 to 500 nM and the “SMARCA2 % Degradation @ 1 μM” value is recorded as “++ (++=30-70%)”. In test [2], this compound displayed a half-maximal degradation concentration (DC50) of 50 to 500 nM and an inhibition at 1 µM of 30 to 70%.

With `N#CC1CN(CC#Cc2nccc(N3CCCN(c4cc(-c5ccccc5O)nnc4N)CC3)n2)CCO1` (stereo not shown) [Compound P-310, 4-[3-(4-{4-[3-amino-6-(o-hydroxyphenyl)-4-pyridazinyl]-1,4-diazepan-1-y1}-2-pyrimidinyl)-2-propynyl]-2-morpholinecarbonitrile], in test [1], the DC50 was in the range of 50 to 500 nM and the “SMARCA2 % Degradation @ 1 μM” value is on record as “++ (++=30-70%)”. In test [2], this compound returned a half-maximal degradation concentration (DC50) of 50 to 500 nM and an inhibition at 1 µM of 30 to 70%.

Regarding `CC1(C)CN(CC#Cc2nccc(N3CCCN(c4cc(-c5ccccc5O)nnc4N)CC3)n2)CCO1` [Compound P-311, 0-[6-amino-5-(4-{2-[3-(2,2-dimethyl-4-morpholinyl)-1-propynyl]-4-pyrimidinyl}-1,4-diazepan-1-yl)-3-pyridazinyl]phenol], in test [1], the DC50 was 50 to 500 nM and the “SMARCA2 % Degradation @ 1 μM” value was “++ (++=30-70%)”. For the same compound, in test [2], the DC50 is 500 to 5000 nM and the inhibition at 1 µM fell in the range of 30 to 70%.

As to `Nc1nnc(-c2ccccc2O)cc1N1CCCN(c2ccnc(C#CCN3CC(F)(F)C3)n2)CC1` [Compound P-312, 0-[6-amino-5-(4-{2-[3-(3,3-difluoro-1-azetidinyl)-1-propynyl]-4-pyrimidinyl}-1,4-diazepan-1-yl)-3-pyridazinyl]phenol], in test [1], the 50% degradation concentration (DC50) lay in the range of 50 to 500 nM and the “SMARCA2 % Degradation @ 1 μM” value was “+++ (+++=>70%)”. In addition, in test [2], the half-maximal degradation concentration (DC50) lay in the range of 50 to 500 nM and the inhibition at 1 µM was 30 to 70%.

Turning to `C[C@@H]1CN(CC#Cc2nccc(N3CCCN(c4cc(-c5ccccc5O)nnc4N)CC3)n2)CCO1` [Compound P-313, 0-{5-[4-(2-{3-[(R)-2-methyl-4-morpholinyl]-1-propynyl}-4-pyrimidinyl)-1,4-diazepan-1-yl]-6-amino-3-pyridaziny1}phenol], in test [1], the 50% degradation concentration (DC50) was 50 to 500 nM and the “SMARCA2 % Degradation @ 1 μM” value is “++ (++=30-70%)”. Moreover, in test [2], the DC50 was in the range of 500 to 5000 nM and the inhibition at 1 µM is < 30%.
